Measured values: US20120016019A1, “PHARMACEUTICAL COMPOSITION FOR TREATING OR PREVENTING CANCER” (priority 2010, published 2012)
Where “and” joins values, the source holds several entries; their conditions need not be identical. Equal values may be shown once. Read-outs that look alike come from different tables or passages of the source.

Experiments:
Type in all cases: cell-based
RKO = experiment: Cell counts, RKO
Procedure: (§1) As a result, LC-50 curves were generated in the 1st week.
(§2) In the 2nd plate, 7 d of the 1st week (LC-50) is the same as 0 h of the 2nd week (recovery).
(§3) At 0 h of the 2nd week, medium was exchanged with untreated medium for the remainder of the experiment. The untreated controls were not measured in the 2nd week (recovery) due to overconfluence by the end of the 1st week. As a result, Recovery curves were generated in the 2nd week.

BJ = details: for cell counts, Mean value / cell counts: BJ; for cell counts: single count
Procedure: as §1, §2, §3
(15) BJ—Normal Fibroblasts BJ cells were derived from normal foreskin of a newborn, and have a long lifespan in comparison with other normal human fibroblast cells. Although they have the capacity to proliferate to a maximum of 72 population doublings before the onset of senescence, they are telomerase negative.

MCF-7 = experiment: Cell counts, MCF-7; details: for cell counts: single wells
Procedure: Cancer cell lines HCC 1419, MCF-7, MDA-MB-468, SKBR3, PC3, HT1299, Saos-2, C-6, AsPc, MDA-MB-231, RKO, HeLa and TT, and normal cell lines HME 50 HT, BJ and CCD-1074sk were tested for changes in metabolism (XTT assay) and cell death (cell counts).
Cells were plated into 48-well Corning CellBind™ plates at densities of 20,000 cells for normal cells and 10,000˜20,000 cells for cancer cells. 24 to 48 h after plating, cells were treated with the composition according to the invention at concentrations of 4.5e-2M. The first time point treated with the composition of the invention is 0 h. At 3 days after the first treatment with the composition of the invention, medium was changed and the composition of the invention at the same concentrations were added to the cultured cells.
Cells were harvested using Trypsin-EDTA at the designated time points. […] Two 48-well plates were used per cell line, and they were measured at 0 h, 12 h, 24 h, 48 h, 4 d and 7 d, respectively.
In the 1st plate, cells were treated with the composition according to the invention and medium was changed at 0 h and 3 d. […] As a result, LC-50 curves were generated in the 1st week.

CC(=O)O[C@H]1C(=O)[C@@]2(C)[C@H]([C@H](OC(=O)c3ccccc3)[C@]3(O)C[C@H](OC(=O)[C@H](O)[C@@H](NC(=O)c4ccccc4)c4ccccc4)C(C)=C1C3(C)C)[C@]1(OC(C)=O)CO[C@@H]1C[C@@H]2O [Taxol]
cell counts (RKO; 1st week (LC50), 0 h): 48000 and 49000 and 54000
cell counts, Mean value (RKO; 1st week (LC50), 0 h): 50333
cell counts (RKO; 1st week (LC50), 24 h): 101600 and 98000 and 99800
cell counts, Mean value (RKO; 1st week (LC50), 24 h): 99800
cell counts, Mean value (RKO; 1st week (LC50), 48 h): 78733
cell counts (RKO; 1st week (LC50), 4 d): 36000
cell counts, Mean value (RKO; 1st week (LC50), 4 d): 36000
cell counts (RKO; 1st week (LC50), 7 d): 38600 and 25400 and 22800
cell counts, Mean value (RKO; 1st week (LC50), 7 d): 28933
cell counts (RKO; 2nd week (recovery), 0 h): 57000 and 58000 and 53000
cell counts, Mean value (RKO; 2nd week (recovery), 0 h): 56000
cell counts (RKO; 2nd week (recovery), 24 h): 26000 and 31000 and 39000
cell counts, Mean value (RKO; 2nd week (recovery), 24 h): 32000
cell counts (RKO; 2nd week (recovery), 48 h): 35000 and 38000 and 30000
cell counts, Mean value (RKO; 2nd week (recovery), 48 h): 34333
cell counts (RKO; 2nd week (recovery), 4 d): 39000 and 31000 and 26000
cell counts, Mean value (RKO; 2nd week (recovery), 4 d): 32000
cell counts, Mean value (RKO; 2nd week (recovery), 7 d): 35000
appearance of normal cells (microscopy) (BJ): fully destroyed
proliferation of normal cells (BJ): decreased due to stress by toxicity of Taxol
cell counts, Mean value (BJ; 1st week (LC50), 0 h): 16333
cell counts (BJ; 1st week (LC50), 0 h): 14000 and 17000 and 18000
cell counts, Mean value (BJ; 1st week (LC50), 12 h): 11000
cell counts (BJ; 1st week (LC50), 12 h): 12000 and 9000
cell counts, Mean value (BJ; 1st week (LC50), 24 h): 12667
cell counts (BJ; 1st week (LC50), 24 h): 10000 and 17000 and 11000
cell counts, Mean value (BJ; 1st week (LC50), 48 h): 11667
cell counts (BJ; 1st week (LC50), 48 h): 14000 and 10000 and 11000
cell counts, Mean value (BJ; 1st week (LC50), 4 d): 6333
cell counts (BJ; 1st week (LC50), 4 d): 9000 and 5000
cell counts, Mean value (BJ; 1st week (LC50), 7 d): 6667
cell counts, Mean value (BJ; 2nd week (recovery), 0 h): 19
cell counts, Mean value (BJ; 2nd week (recovery), 24 h): 8
cell counts (BJ; 2nd week (recovery), 24 h): 7 and 9
cell counts, Mean value (BJ; 2nd week (recovery), 48 h): 13
cell counts (BJ; 2nd week (recovery), 48 h): 8 and 14 and 16
cell counts, Mean value (BJ; 2nd week (recovery), 4 d): 11
cell counts, Mean value (BJ; 2nd week (recovery), 7 d): 28
cell counts (BJ; 2nd week (recovery), 7 d): 35 and 29 and 19
cell counts, Mean value (MCF-7; 1st week (LC50), 0 h): 55333
cell counts (MCF-7; 1st week (LC50), 0 h): 39000 and 67000 and 60000
cell counts, Mean value (MCF-7; 1st week (LC50), 24 h): 43667
cell counts (MCF-7; 1st week (LC50), 24 h): 39000 and 54000 and 38000
cell counts, Mean value (MCF-7; 1st week (LC50), 48 h): 23333
cell counts (MCF-7; 1st week (LC50), 48 h): 21000 and 19000 and 30000
cell counts, Mean value (MCF-7; 1st week (LC50), 4 d): 21667
cell counts, Mean value (MCF-7; 1st week (LC50), 7 d): 4333
cell counts (MCF-7; 1st week (LC50), 7 d): 4000 and 5000
cell counts, Mean value (MCF-7; 2nd week (recovery), 0 h): 2032
cell counts (MCF-7; 2nd week (recovery), 0 h): 2361 and 1648 and 2087
cell counts, Mean value (MCF-7; 2nd week (recovery), 24 h): 646
cell counts (MCF-7; 2nd week (recovery), 24 h): 807 and 728
cell counts, Mean value (MCF-7; 2nd week (recovery), 48 h): 2084
cell counts (MCF-7; 2nd week (recovery), 48 h): 1726 and 2010 and 2517
cell counts, Mean value (MCF-7; 2nd week (recovery), 4 d): 2013
cell counts (MCF-7; 2nd week (recovery), 4 d): 2135 and 1892 and 2011
cell counts, Mean value (MCF-7; 2nd week (recovery), 7 d): 1772
cell counts (MCF-7; 2nd week (recovery), 7 d): 2098 and 1693 and 1524
